Reference: US20250073255A1, “USE OF FA-TYPE LIPID COMPOUNDS IN PREPARATION OF NUCLEIC ACID DELIVERY REAGENT AND RELATED PRODUCT” (BEIJING BAISHIKANG PHARMACEUTICAL TECHNOLOGY (BSJPHARMA) …, priority 2021, published 2025)

System: C57BL/6 male mice
Assay: In vivo delivery study of lipid nucleic acid mixture (oral gavage, RT-qPCR of PGY-sRNA-26 in tissues)
Design: species or system mouse
Conditions: for oral delivery of single-stranded sRNA nucleic acids into mouse blood / oral delivery of single-stranded sRNA nucleic acids into mouse brain tissue / oral delivery of single-stranded sRNA nucleic acids into mouse femur / oral delivery of single-stranded sRNA nucleic acids into mouse heart tissue / oral delivery of single-stranded sRNA nucleic acids into mouse intestinal tissue / oral delivery of single-stranded sRNA nucleic acids into mouse kidney tissue / oral delivery of single-stranded sRNA nucleic acids into mouse liver tissue / oral delivery of single-stranded sRNA nucleic acids into mouse lung tissue / oral delivery of single-stranded sRNA nucleic acids into mouse pancreatic tissue / oral delivery of single-stranded sRNA nucleic acids into mouse spleen tissue / oral delivery of single-stranded sRNA nucleic acids into mouse stomach tissue: 100 μg lipid:10 nmol PGY-sRNA-26, sampled after 12 hours; for oral delivery of single-stranded sRNA nucleic acids into mouse heart tissue: vs free uptake group; for oral delivery of single-stranded sRNA nucleic acids into mouse intestinal tissue: intestine; for oral delivery of single-stranded sRNA nucleic acids into mouse pancreatic tissue: pancreas; for overall delivery efficacy: delivering nucleic acids into each tissue and blood tested: 100 μg lipid:10 nmol PGY-sRNA-26, all tissues and blood tested
Procedure, shortened: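 Stem-loop RT and SYBR qPCR, normalized to U6, measured PGY-sRNA-26 in blood and organs 12 h after gavage. Dosing was 10 nmol sRNA with 100 μg lipid, pre-mixed and heated 15 min at 90 °C, in 12-h-fasted mice, against saline and free-sRNA groups.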

CCCCC/C=C\C/C=C\C/C=C\C/C=C\CCCC(=O)Nc1ccc(S(N)(=O)=O)cc1 [Lipid 826, (5Z,8Z,11Z,14Z)-N-(4-sulfamoylphenyl)icosa-5,8,11,14-tetraenamide]
oral delivery of single-stranded sRNA nucleic acids into mouse blood: can effectively orally deliver | oral delivery of single-stranded sRNA nucleic acids into mouse brain tissue: can effectively orally deliver | oral delivery of single-stranded sRNA nucleic acids into mouse femur: can effectively orally deliver | oral delivery of single-stranded sRNA nucleic acids into mouse heart tissue: can effectively orally deliver | oral delivery of single-stranded sRNA nucleic acids into mouse intestinal tissue: can effectively orally deliver | oral delivery of single-stranded sRNA nucleic acids into mouse kidney tissue: can effectively orally deliver | oral delivery of single-stranded sRNA nucleic acids into mouse liver tissue: can effectively orally deliver | oral delivery of single-stranded sRNA nucleic acids into mouse lung tissue: can effectively orally deliver | oral delivery of single-stranded sRNA nucleic acids into mouse pancreatic tissue: can effectively orally deliver | oral delivery of single-stranded sRNA nucleic acids into mouse spleen tissue: can effectively orally deliver | oral delivery of single-stranded sRNA nucleic acids into mouse stomach tissue: can effectively orally deliver

CCCCCC(=O)/C=C/C=O [Lipid 525, (E)-4-oxonon-2-enal]
oral delivery of single-stranded sRNA nucleic acids into mouse intestinal tissue: can effectively orally deliver | oral delivery of single-stranded sRNA nucleic acids into mouse kidney tissue: can effectively orally deliver | oral delivery of single-stranded sRNA nucleic acids into mouse lung tissue: can effectively orally deliver | oral delivery of single-stranded sRNA nucleic acids into mouse spleen tissue: can effectively orally deliver | oral delivery of single-stranded sRNA nucleic acids into mouse stomach tissue: can effectively orally deliver

CCCCCCCCCCCC(=O)OC/C=C(\C)CC/C=C(\C)CCC=C(C)C [Lipid 802, [(2E,6E)-3,7,11-trimethyldodeca-2,6,10-trienyl]dodecanoate]
overall delivery efficacy: delivering nucleic acids into each tissue and blood tested: best delivery efficacy | oral delivery of single-stranded sRNA nucleic acids into mouse blood: can effectively orally deliver | oral delivery of single-stranded sRNA nucleic acids into mouse brain tissue: can effectively orally deliver | oral delivery of single-stranded sRNA nucleic acids into mouse femur: can effectively orally deliver | oral delivery of single-stranded sRNA nucleic acids into mouse heart tissue: can effectively orally deliver | oral delivery of single-stranded sRNA nucleic acids into mouse intestinal tissue: can effectively orally deliver | oral delivery of single-stranded sRNA nucleic acids into mouse kidney tissue: can effectively orally deliver | oral delivery of single-stranded sRNA nucleic acids into mouse liver tissue: can effectively orally deliver | oral delivery of single-stranded sRNA nucleic acids into mouse lung tissue: can effectively orally deliver | oral delivery of single-stranded sRNA nucleic acids into mouse pancreatic tissue: can effectively orally deliver | oral delivery of single-stranded sRNA nucleic acids into mouse spleen tissue: can effectively orally deliver | oral delivery of single-stranded sRNA nucleic acids into mouse stomach tissue: can effectively orally deliver

CCCCCCCCCCCCCCCCCC(N)=O [Lipid 601, octadecanamide]
overall delivery efficacy: delivering nucleic acids into each tissue and blood tested: best delivery efficacy | oral delivery of single-stranded sRNA nucleic acids into mouse blood: can effectively orally deliver | oral delivery of single-stranded sRNA nucleic acids into mouse brain tissue: can effectively orally deliver | oral delivery of single-stranded sRNA nucleic acids into mouse femur: can effectively orally deliver | oral delivery of single-stranded sRNA nucleic acids into mouse heart tissue: can effectively orally deliver | oral delivery of single-stranded sRNA nucleic acids into mouse intestinal tissue: can effectively orally deliver | oral delivery of single-stranded sRNA nucleic acids into mouse kidney tissue: can effectively orally deliver | oral delivery of single-stranded sRNA nucleic acids into mouse liver tissue: can effectively orally deliver | oral delivery of single-stranded sRNA nucleic acids into mouse lung tissue: can effectively orally deliver | oral delivery of single-stranded sRNA nucleic acids into mouse spleen tissue: can effectively orally deliver | oral delivery of single-stranded sRNA nucleic acids into mouse stomach tissue: can effectively orally deliver

CCCCCCCCCCCCCCCCCCO [Lipid 636, octadecan-1-ol]
overall delivery efficacy: delivering nucleic acids into each tissue and blood tested: best delivery efficacy | oral delivery of single-stranded sRNA nucleic acids into mouse blood: can effectively orally deliver | oral delivery of single-stranded sRNA nucleic acids into mouse brain tissue: can effectively orally deliver | oral delivery of single-stranded sRNA nucleic acids into mouse femur: can effectively orally deliver | oral delivery of single-stranded sRNA nucleic acids into mouse heart tissue: can effectively orally deliver | oral delivery of single-stranded sRNA nucleic acids into mouse intestinal tissue: can effectively orally deliver | oral delivery of single-stranded sRNA nucleic acids into mouse kidney tissue: can effectively orally deliver | oral delivery of single-stranded sRNA nucleic acids into mouse liver tissue: can effectively orally deliver | oral delivery of single-stranded sRNA nucleic acids into mouse lung tissue: can effectively orally deliver | oral delivery of single-stranded sRNA nucleic acids into mouse spleen tissue: can effectively orally deliver | oral delivery of single-stranded sRNA nucleic acids into mouse stomach tissue: can effectively orally deliver

CCCCC/C=C\C/C=C\C/C=C\C/C=C\CCCCCC(=O)O [Lipid 520, (7Z,10Z,13Z,16Z)-docosa-7,10,13,16-tetraenoic acid]
oral delivery of single-stranded sRNA nucleic acids into mouse brain tissue: can effectively orally deliver | oral delivery of single-stranded sRNA nucleic acids into mouse heart tissue: can effectively orally deliver | oral delivery of single-stranded sRNA nucleic acids into mouse liver tissue: can effectively orally deliver | oral delivery of single-stranded sRNA nucleic acids into mouse lung tissue: can effectively orally deliver | oral delivery of single-stranded sRNA nucleic acids into mouse spleen tissue: can effectively orally deliver

CCCCCCCC/C=C/CCCCCCCCO [Lipid 600, (E)-octadec-9-en-1-ol]
overall delivery efficacy: delivering nucleic acids into each tissue and blood tested: best delivery efficacy | oral delivery of single-stranded sRNA nucleic acids into mouse blood: can effectively orally deliver | oral delivery of single-stranded sRNA nucleic acids into mouse brain tissue: can effectively orally deliver | oral delivery of single-stranded sRNA nucleic acids into mouse femur: can effectively orally deliver | oral delivery of single-stranded sRNA nucleic acids into mouse heart tissue: can effectively orally deliver | oral delivery of single-stranded sRNA nucleic acids into mouse intestinal tissue: can effectively orally deliver | oral delivery of single-stranded sRNA nucleic acids into mouse kidney tissue: can effectively orally deliver | oral delivery of single-stranded sRNA nucleic acids into mouse liver tissue: can effectively orally deliver | oral delivery of single-stranded sRNA nucleic acids into mouse lung tissue: can effectively orally deliver | oral delivery of single-stranded sRNA nucleic acids into mouse spleen tissue: can effectively orally deliver | oral delivery of single-stranded sRNA nucleic acids into mouse stomach tissue: can effectively orally deliver

CCCCCCCCCCCCCCC(=O)O [Lipid 605, pentadecanoic acid]
oral delivery of single-stranded sRNA nucleic acids into mouse blood: can effectively orally deliver | oral delivery of single-stranded sRNA nucleic acids into mouse femur: can effectively orally deliver | oral delivery of single-stranded sRNA nucleic acids into mouse stomach tissue: can effectively orally deliver

CCCCC/C=C\C/C=C\C/C=C\C/C=C\CCCC(=O)NCCCCCO [Lipid 807, (5Z,8Z,11Z,14Z)-N-(5-hydroxypentyl)icosa-5,8,11,14-tetraenamide]
oral delivery of single-stranded sRNA nucleic acids into mouse blood: can effectively orally deliver | oral delivery of single-stranded sRNA nucleic acids into mouse brain tissue: can effectively orally deliver | oral delivery of single-stranded sRNA nucleic acids into mouse femur: can effectively orally deliver | oral delivery of single-stranded sRNA nucleic acids into mouse heart tissue: can effectively orally deliver | oral delivery of single-stranded sRNA nucleic acids into mouse intestinal tissue: can effectively orally deliver | oral delivery of single-stranded sRNA nucleic acids into mouse kidney tissue: can effectively orally deliver | oral delivery of single-stranded sRNA nucleic acids into mouse liver tissue: can effectively orally deliver | oral delivery of single-stranded sRNA nucleic acids into mouse lung tissue: can effectively orally deliver | oral delivery of single-stranded sRNA nucleic acids into mouse pancreatic tissue: can effectively orally deliver | oral delivery of single-stranded sRNA nucleic acids into mouse spleen tissue: can effectively orally deliver | oral delivery of single-stranded sRNA nucleic acids into mouse stomach tissue: can effectively orally deliver

CC(CC(=O)O)C(=O)O (stereo not drawn) [Lipid 608, 2-methylbutanedioic acid]
oral delivery of single-stranded sRNA nucleic acids into mouse femur: can effectively orally deliver | oral delivery of single-stranded sRNA nucleic acids into mouse heart tissue: can effectively orally deliver | oral delivery of single-stranded sRNA nucleic acids into mouse lung tissue: can effectively orally deliver | oral delivery of single-stranded sRNA nucleic acids into mouse spleen tissue: can effectively orally deliver | oral delivery of single-stranded sRNA nucleic acids into mouse stomach tissue: can effectively orally deliver

C=C(CC(=O)O)C(=O)O [Lipid 626, 2-methylidenebutanedioic acid]
oral delivery of single-stranded sRNA nucleic acids into mouse blood: can effectively orally deliver | oral delivery of single-stranded sRNA nucleic acids into mouse brain tissue: can effectively orally deliver | oral delivery of single-stranded sRNA nucleic acids into mouse femur: can effectively orally deliver | oral delivery of single-stranded sRNA nucleic acids into mouse heart tissue: can effectively orally deliver | oral delivery of single-stranded sRNA nucleic acids into mouse intestinal tissue: can effectively orally deliver | oral delivery of single-stranded sRNA nucleic acids into mouse kidney tissue: can effectively orally deliver | oral delivery of single-stranded sRNA nucleic acids into mouse liver tissue: can effectively orally deliver | oral delivery of single-stranded sRNA nucleic acids into mouse lung tissue: can effectively orally deliver
